Assay results taken from publication PMC9381947 (Antiviral Research, 2022).

How the values were obtained:
NSP13 E375A = assay type: biochemical, SARS-CoV-2
NSP13 E319A = assay type: biochemical, SARS-CoV-2

Compound: O=C1O[C@@H]2[C@@H](OC(=O)c3cc(O)c(O)c(O)c3-c3c1cc(O)c(O)c3O)[C@H](O)O[C@@H]1COC(=O)c3cc(O)c(O)c(O)c3-c3c(O)c(O)c4oc(=O)c5c(c(O)c(O)c6oc(=O)c3c4c65)-c3c(cc(O)c(O)c3O)C(=O)O[C@@H]21 [Punicalagin, 2,3-hexahydroxydiphenoyl-gallagyl-D-glucose]
- reduction of the inhibitory potency compared to wild type (NSP13 E375A): about 2 fold
- reduction of the inhibitory potency compared to wild type (NSP13 E319A): about 2 fold
